In ChEMBL document CHEMBL1201862, “PubChem BioAssay data set” (2004):
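Five compound concentrations were applied to cells in 96-well plates for 48 hours; endpoints were derived by simple linear interpolation of the resulting dose-response curve. GI50 = concentration required for 50% inhibition of growth.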 The source made the active and inactive calls. No stated cut-off is given here; in the data, active = GI50 up to about 1.1 µM and inactive = higher.

What was measured:
Test in all cases: DTP human tumour cell line panel, 48 h
[1] = tested on: SF-268
[2] = tested on: MOLT-4
[3] = tested on: OVCAR-8
[4] = tested on: SNB-75
[5] = tested on: Malme-3M
[6] = tested on: SN12C
[7] = tested on: NCI-H226
[8] = tested on: ACHN
[9] = tested on: A549
[10] = tested on: UACC-257
[11] = tested on: SW-620
[12] = tested on: HCT-15
[13] = tested on: K562
[14] = tested on: U-251
[15] = tested on: OVCAR-3
[16] = tested on: M14
[17] = tested on: NCI-H522
[18] = tested on: OVCAR-5
[19] = tested on: TK-10
[20] = tested on: MDA-MB-435

Row | Compound | GI50 [1] | GI50 [2] | GI50 [3] | GI50 [4] | GI50 [5] | GI50 [6] | GI50 [7] | GI50 [8] | GI50 [9] | GI50 [10] | GI50 [11] | GI50 [12] [µM] | GI50 [13] | GI50 [14] | GI50 [15] | GI50 [16] | GI50 [17] | GI50 [18] | GI50 [19] | GI50 [20]
1 | Cn1c(O)c(C(=O)Nc2cccs2)c(=O)[nH]c1=S | 18.8 µM (inactive) | 24.7 µM (inactive) | 14 µM (inactive) | 16.9 µM (inactive) | 16.1 µM (inactive) | 17.7 µM (inactive) | 14.5 µM (inactive) | 12.9 µM (inactive) | 19.4 µM (inactive) | 15.4 µM (inactive) | 26.2 µM (inactive) | 12.7 | 51.9 µM (inactive) | 14.8 µM (inactive) | 19.9 µM (inactive) | 23.1 µM (inactive) | 13.5 µM (inactive) | 28.6 µM (inactive) | 31 µM (inactive) | –
2 | COC(=O)C(/C(=N/NC(N)=O)C(=O)Nc1c(C)cccc1C(C)(C)C)c1nc2ccc(Cl)cc2nc1O (stereo unspecified) | > 100 µM (inactive) | > 100 µM (inactive) | > 100 µM (inactive) | > 100 µM (inactive) | > 100 µM (inactive) | > 100 µM (inactive) | > 100 µM (inactive) | > 100 µM (inactive) | > 100 µM (inactive) | > 100 µM (inactive) | > 100 µM (inactive) | > 100 | > 100 µM (inactive) | > 100 µM (inactive) | > 100 µM (inactive) | > 100 µM (inactive) | > 100 µM (inactive) | > 100 µM (inactive) | > 100 µM (inactive) | –
3 | COC(=O)c1c(O)ccc2c1c1c(n2Cc2ccc(OC)cc2)C(=O)c2ccccc2C1 | 30.3 µM (inactive) | 40.8 µM (inactive) | > 100 µM (inactive) | 51.2 µM (inactive) | > 100 µM (inactive) | 27 µM (inactive) | > 100 µM (inactive) | – | 45.9 µM (inactive) | 44.4 µM (inactive) | 82.8 µM (inactive) | 52.1 | 76.7 µM (inactive) | 47.3 µM (inactive) | 63.2 µM (inactive) | 38.7 µM (inactive) | – | – | 84.1 µM (inactive) | 45.7 µM (inactive)
4 | CC1=NN(c2ccccc2)C(=O)C1C(=O)C(=O)Nc1ccc(C)cc1C (stereo unspecified) | > 100 µM (inactive) | > 100 µM (inactive) | > 100 µM (inactive) | > 100 µM (inactive) | > 100 µM (inactive) | > 100 µM (inactive) | > 100 µM (inactive) | > 100 µM (inactive) | > 100 µM (inactive) | > 100 µM (inactive) | > 100 µM (inactive) | > 100 | > 100 µM (inactive) | > 100 µM (inactive) | > 100 µM (inactive) | > 100 µM (inactive) | > 100 µM (inactive) | > 100 µM (inactive) | > 100 µM (inactive) | –
5 | Clc1ccc(-c2nnc(-c3nn(-c4ccccc4)c4nc5ccccc5nc34)o2)cc1 | 69.3 µM (inactive) | 26.9 µM (inactive) | 82.8 µM (inactive) | 95.1 µM (inactive) | 84.3 µM (inactive) | > 100 µM (inactive) | 76 µM (inactive) | > 100 µM (inactive) | > 100 µM (inactive) | 67.5 µM (inactive) | 62.4 µM (inactive) | 55 | 38.2 µM (inactive) | 84.7 µM (inactive) | 34.1 µM (inactive) | 48.3 µM (inactive) | > 100 µM (inactive) | > 100 µM (inactive) | > 100 µM (inactive) | –
6 | C(=C\C(Sc1ccccc1)c1ccccc1)/NNC1=NN=C(c2ccccc2)C(c2ccccc2)N1 (stereo unspecified) | > 100 µM (inactive) | 8.2 µM (inactive) | 34.6 µM (inactive) | > 100 µM (inactive) | 50 µM (inactive) | 55 µM (inactive) | 64.4 µM (inactive) | 44.7 µM (inactive) | 58.7 µM (inactive) | > 100 µM (inactive) | 21.8 µM (inactive) | 23.5 | 13.1 µM (inactive) | 30 µM (inactive) | 33.4 µM (inactive) | 75 µM (inactive) | 33.7 µM (inactive) | 35.5 µM (inactive) | 61.2 µM (inactive) | –
7 | CS(=O)(=O)C1(Br)S(=O)(=O)OCCOS1(=O)=O | > 100 µM (inactive) | > 100 µM (inactive) | > 100 µM (inactive) | > 100 µM (inactive) | > 100 µM (inactive) | > 100 µM (inactive) | > 100 µM (inactive) | > 100 µM (inactive) | > 100 µM (inactive) | > 100 µM (inactive) | > 100 µM (inactive) | > 100 | > 100 µM (inactive) | > 100 µM (inactive) | > 100 µM (inactive) | > 100 µM (inactive) | > 100 µM (inactive) | > 100 µM (inactive) | > 100 µM (inactive) | –
8 | O=[N+]([O-])C1CC/C(=N/O)c2nonc21 (stereo unspecified) | > 10 µM (inactive) | > 10 µM (inactive) | > 10 µM (inactive) | – | > 10 µM (inactive) | > 10 µM (inactive) | > 10 µM (inactive) | > 10 µM (inactive) | > 10 µM (inactive) | > 10 µM (inactive) | > 10 µM (inactive) | > 10 | > 10 µM (inactive) | > 10 µM (inactive) | > 10 µM (inactive) | > 10 µM (inactive) | – | > 10 µM (inactive) | > 10 µM (inactive) | > 10 µM (inactive)
9 | CCCCc1c2c(nc3c1CCC/C3=C\c1ccccc1)C(=O)CCC2 | 21.3 µM (inactive) | 13.8 µM (inactive) | 24.5 µM (inactive) | 29.1 µM (inactive) | 26 µM (inactive) | 19.6 µM (inactive) | 18.4 µM (inactive) | 25.7 µM (inactive) | 25.6 µM (inactive) | 17 µM (inactive) | 22 µM (inactive) | 21.8 | 18.2 µM (inactive) | 15.2 µM (inactive) | 15.1 µM (inactive) | 21.1 µM (inactive) | 13.2 µM (inactive) | 19.5 µM (inactive) | 24.5 µM (inactive) | –
10 | CCCCCCOc1ccc(NC2=C(Cl)C(=O)c3cccnc3C2=O)cc1 | 2.11 µM (inactive) | 1.87 µM (inactive) | 2.03 µM (inactive) | 1 µM (active) | 2.3 µM (inactive) | 1.68 µM (inactive) | 1.74 µM (inactive) | 2.1 µM (inactive) | 1.95 µM (inactive) | 2.25 µM (inactive) | 1.54 µM (inactive) | 1.79 | 1.39 µM (inactive) | 2.29 µM (inactive) | 1.35 µM (inactive) | 1.3 µM (inactive) | – | 2.4 µM (inactive) | 3.3 µM (inactive) | 1.75 µM (inactive)
11 | CCOC(=O)C1=C(Nc2cccc(OC)c2)OCC1=O | > 100 µM (inactive) | > 100 µM (inactive) | > 100 µM (inactive) | > 100 µM (inactive) | – | – | > 100 µM (inactive) | > 100 µM (inactive) | – | > 100 µM (inactive) | > 100 µM (inactive) | > 100 | > 100 µM (inactive) | > 100 µM (inactive) | – | > 100 µM (inactive) | – | – | > 100 µM (inactive) | > 100 µM (inactive)
12 | COc1cc(-c2nn3c(=O)n(-c4ccc(Cl)cc4)c(=O)nc3s2)cc(OC)c1OC | > 50 µM (inactive) | 98.2 µM (inactive) | > 49.5 µM (inactive) | 8.24 µM (inactive) | 65.9 µM (inactive) | > 96.2 µM (inactive) | > 55.7 µM (inactive) | 16.3 µM (inactive) | 41 µM (inactive) | > 58.7 µM (inactive) | > 100 µM (inactive) | > 88.3 | > 31.6 µM (inactive) | 18 µM (inactive) | 54.5 µM (inactive) | 39.2 µM (inactive) | > 58.2 µM (inactive) | > 100 µM (inactive) | 8.55 µM (inactive) | –
13 | c1cncc(CSc2nc3ccccc3nc2-c2cccs2)c1 | 7.71 µM (inactive) | 24.8 µM (inactive) | 83.9 µM (inactive) | > 100 µM (inactive) | 46.1 µM (inactive) | 77.1 µM (inactive) | 70 µM (inactive) | 36.9 µM (inactive) | 53.6 µM (inactive) | > 100 µM (inactive) | 91.4 µM (inactive) | 81.1 | 39.8 µM (inactive) | – | 20.9 µM (inactive) | 92.5 µM (inactive) | 33.4 µM (inactive) | > 100 µM (inactive) | > 100 µM (inactive) | –
14 | O=[N+]([O-])C1C2C=CC(C2)[C@H]1c1ccco1 (stereo partly specified) | > 100 µM (inactive) | > 100 µM (inactive) | > 100 µM (inactive) | > 100 µM (inactive) | > 100 µM (inactive) | > 100 µM (inactive) | > 100 µM (inactive) | > 100 µM (inactive) | > 100 µM (inactive) | > 100 µM (inactive) | > 100 µM (inactive) | > 100 | > 100 µM (inactive) | > 100 µM (inactive) | > 100 µM (inactive) | > 100 µM (inactive) | > 100 µM (inactive) | > 100 µM (inactive) | > 100 µM (inactive) | –
15 | COc1ccc(-c2oc(/C=N/c3ccccc3)c([N+](=O)[O-])c2-c2ccc(OC)c(OC)c2)cc1OC | > 100 µM (inactive) | > 100 µM (inactive) | > 100 µM (inactive) | > 100 µM (inactive) | > 100 µM (inactive) | > 100 µM (inactive) | > 100 µM (inactive) | > 100 µM (inactive) | > 100 µM (inactive) | > 100 µM (inactive) | > 100 µM (inactive) | > 100 | > 100 µM (inactive) | > 100 µM (inactive) | > 100 µM (inactive) | > 100 µM (inactive) | > 100 µM (inactive) | > 100 µM (inactive) | > 100 µM (inactive) | –
